From patent US9180155B2, “Compositions from Nigella sativa” (Bio Nexus, Ltd, priority 2013, dated 2015) come the findings set out here.

In assay [1] the test system is adiponectin secretion in 3T3-L1 adipocytes. The experiment in a line: Adiponectin secretion in t10-CLA-stimulated 3T3-L1 adipocytes. Format: cell-based, murine. Here is the method:
The 3T3-L1 murine fibroblast model as used in Example 4 was used in this experiments. Test materials were added four hours prior to the addition of t10-CLA at a concentration of 50 μM. Following overnight incubation, the supernatant media were sampled for determination of IL-6 and adiponectin. The adiponectin secreted into the medium was quantified using the Mouse Adiponectin Quantikine® Immunoassay kit with no modifications (R&D Systems, Minneapolis, Minn.). […] Test materials and were assayed in duplicate, while solvent controls were replicated eight times. IL-6 and adiponectin secretion were represented relative to the IL-6 and adiponectin secretion of the t10-CLA only controls as the IL-6 and adiponectin index and differences among the means were analyzed by the student's t-test assuming a five percent probability of a type I error (Excel; Microsoft, Redmond, Wash.).

Assay [2] concerns IL-6 secretion in 3T3-L1 adipocytes. The assay can be described thus: IL-6 secretion in t10-CLA-stimulated 3T3-L1 adipocytes. The format is cell-based, murine. Here is the method:
The 3T3-L1 murine fibroblast model as used in Example 4 was used in this experiments. Test materials were added four hours prior to the addition of t10-CLA at a concentration of 50 μM. Following overnight incubation, the supernatant media were sampled for determination of IL-6 and adiponectin. The IL-6 secreted into the medium in response to […] stimulation was quantified using the Quantikine® Mouse IL-6 Immunoassay kit with no modifications (R&D Systems, Minneapolis, Minn.). […] All supernatant media samples were diluted 1:30 for quantification. Test materials and were assayed in duplicate, while solvent controls were replicated eight times. IL-6 and adiponectin secretion were represented relative to the IL-6 and adiponectin secretion of the t10-CLA only controls as the IL-6 and adiponectin index and differences among the means were analyzed by the student's t-test assuming a five percent probability of a type I error (Excel; Microsoft, Redmond, Wash.).

A further assay relates to Caco-2 monolayers. The experiment in a line: t10-CLA-induced loss of TEER in Caco-2 monolayers. Format: cell-based, human. The conditions noted are these: t10-CLA 50 μM control = 100; μg TQ equivalents/mL: Thymoquinone 5.0, NS8 0.11, NS9 0.99, NS10 0.012, NSSpent#2 0.0005; NSSpent#1 5 μg/mL. The text has this:
The protocol for growing and differentiation the human Caco-2 colon andenocarcinoma cells was a modification of Protocol 3 as described by Yamashita et al. [[…]., and Furuyama, Y. 2002) New and better protocols for a short-term Caco-2 cell culture system, J Pharm Sci 91, 669-679]. Caco-2 Human Colon Adenocarcinoma cells were obtained from ATCC (Rockville, Md.; catalog #HTB-37) and maintained in a growth media: DMEM (Dulbecco's Modified Eagles Medium 1×) containing L-glutamine, glucose; Cellgro catalog #35-010CV with the following additions: (1) Penicillin (5,000 IU/mL)/Streptomycin (5,000 μg/mL) Cellgro catalog #30-001C1, (2) 10% FBS-Fetal Bovine Serum, Characterized; Hyclone catalog #SH30071.3, and (3) 1% NEAA-Non Essential Amino Acids; Cellgro catalog #25-025-CI; cells were cultured at 37 C in a humidified air-5% CO2 atmosphere in T175 flasks. BIOCOAT^R HTS Caco-2 Assay System kits (Becton Dickinson, N.J.; catalog #354801) consisting of 24-well fibrillar collagen coated inserts and feeder trays were used in all experiments and plated as follows. Media was removed from the T175 flasks and cells were washed with 10 mLs PBS (phosphate buffered saline 1× without Ca^++, without Mg^++; Cellgro #25-053-CI). […]

Another assay relates to AMPK. The assay can be described thus: AMPK activation (pT172-AMPK) in C2C12 myocytes. Particulars: 1 mM. The format is cell-based, Mouse. Here is the method: Mouse C2C12 myoblasts were obtained from American Type Culture Collection (Manassas, Va.), and were maintained in Dulbecco's modified Eagle's medium (DMEM) supplemented with 10% fetal bovine serum at 37° C. under a humidified atmosphere of 5% CO2.
C2C12 cells were seeded at an initial density of 6×10^4 cells/cm^2 in 24-well plates. For two days, the cells were allowed grow to reach confluence. Following confluence, the cells were forced to differentiate into myocytes by culturing in DMEM supplemented with 2% horse serum for seven days.
On Day 8 to 10 post differentiation, C2C12 myocytes were incubated in serum-free DMEM plus 0.5% BSA (bovine serum albumin) for three hours. […]
pT^172-AMPK was quantified using the Biosource AMPK Immunoassay Kit (Camarillo, Calif.) without modification. Protein content of the cell lysates was determined with the Active Motif fluorescent protein assay reagent (Carlsbad Calif., Hoefelschweiger, B. K., Duerkop, A., and Wolfbeis, O. S, Novel type of general protein assay using a chromogenic and fluorogenic amine-reactive probe. Anal Biochem 2005, 344, 122-9). A Packard Fluorocount spectrofluorometer (Model#BF 10000, Meridan, Conn.) was used for protein determination and a MEL312e BIO-KINETICS READER (Bio-Tek Instruments, Winooski, Vt.) was used for quantification of pT^172-AMPK. […]

Where [3] appears, read: t10-CLA 50 μM control = 100, μg TQ equivalents/mL: Thymoquinone 5.0, NS8 0.11, NS9 0.99, NS10 0.012, NSSpent#2 0.0005, NSSpent#1 5 μg/mL.

For the compound `CCCCC/C=C\C=C\CCCCCCCCC(=O)O` (single isomer, unassigned) [t10-CLA, Trans-10,Cis12-Conjugated Linoleic Acid Isomer], the “reduction in adiponectin secretion relative to controls” value in assay [1] (50 μM, overnight) is 65%. Also, the “Adiponectin Index” value in assay [1] (setting [3]) is given as 100 ± 14. In addition, the “increase in IL-6 secretion relative to controls” value in assay [2] (50 μM, overnight) was found to be 8 fold. Moreover, the “IL-6 Index” value in assay [2] (setting [3]) amounted to 100 ± 11. Further, the “Relative Loss of TEER” value in the assay with Caco-2 monolayers stood at 100 ± 5.81.

Turning to `NC(=O)c1ncn([C@@H]2O[C@H](CO)[C@@H](O)[C@H]2O)c1N` [AICAR, 5-Aminoimidazole-4-carboxamide ribonucleoside], the “increase of pT172-AMPK relative to DMSO negative controls” value with AMPK (30 min, average over ten independent assays (95% CI=1.26-2.21)) worked out at 1.67 fold. The “activation of AMPK” value with AMPK (in assays run with N. sativa supercritical CO2 extracts) amounted to 1.45 fold.
